Where two headings read alike, the source gives them in different places.
Assays:
PKC-ε = biological target: T1, PKC-ε (Homo sapiens, UniProt Q02156); experiment: Activation of purified PKC isozymes; type: biochemical
T1 sequence (Q02156 1-737): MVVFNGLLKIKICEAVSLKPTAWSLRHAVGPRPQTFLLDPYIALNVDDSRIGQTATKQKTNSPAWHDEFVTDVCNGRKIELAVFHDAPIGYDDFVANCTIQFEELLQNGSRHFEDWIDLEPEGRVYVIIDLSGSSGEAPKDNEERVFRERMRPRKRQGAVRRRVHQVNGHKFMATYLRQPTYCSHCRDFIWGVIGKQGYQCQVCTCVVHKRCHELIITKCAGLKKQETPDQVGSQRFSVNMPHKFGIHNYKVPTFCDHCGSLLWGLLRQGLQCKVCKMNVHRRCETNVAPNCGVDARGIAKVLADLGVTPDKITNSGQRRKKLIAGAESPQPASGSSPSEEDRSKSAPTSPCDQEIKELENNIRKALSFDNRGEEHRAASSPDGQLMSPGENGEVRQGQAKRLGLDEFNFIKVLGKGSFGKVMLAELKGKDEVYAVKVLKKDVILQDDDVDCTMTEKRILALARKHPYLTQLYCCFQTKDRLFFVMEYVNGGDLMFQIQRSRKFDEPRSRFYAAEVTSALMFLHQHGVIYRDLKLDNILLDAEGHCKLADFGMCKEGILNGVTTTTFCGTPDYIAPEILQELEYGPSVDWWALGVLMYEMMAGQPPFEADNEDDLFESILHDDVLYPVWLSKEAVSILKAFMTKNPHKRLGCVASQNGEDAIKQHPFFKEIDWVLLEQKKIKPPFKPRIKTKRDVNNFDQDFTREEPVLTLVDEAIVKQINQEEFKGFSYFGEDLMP
Description: Protocol: Purified PKC-α, βII, γ, δ, or ε (9 ng) was preincubated for 5 minutes at room temperature with the following PKC activators: (A) DHA-CP6, (B) EPA-CP5, (C) AA-CP4, (D) DCP-LA, (E) “other cyclopropaneated and epoxidized fatty acids, alcohols, and methyl esters.” followed by measurement of PKC activity as described under Experimental Procedures. Results are shown below in FIG. 6.

5XFAD mice = experiment: Water maze learning and memory and amyloid deposition in 5XFAD mice; type: in vivo; details: 2 times/week from 2 months old
Text: Protocol: 5-month old 5XFAD mice were trained for 5-6 days (3-4 trials/day) to find a hidden platform (9 cm diameter), submerged about 2 cm below the water surface in the a maze pool with 114 cm diameter. After the training trials, a probe trial (a quadrant test or memory retention trial) was given with the platform removed to assess memory retention for its location by the distance the mouse moved in the quadrants. […] Non-treated groups (wild-type and transgenic (5×) mice) received the same vehicle volumes, mechanism of delivery, and frequency of administration as the treated groups

[1] = tested on: BDNF, NGF, NT-3, and GAP-43 mRNA; experiment: NTF mRNA expression in primary hippocampal neurons treated with Aβ (real time PCR); type: cell-based, rat; details: co-treated 24 hours or treated 12 hours after Aβ
Description: Protocol: Primary hippocampal neurons were treated with control buffer (Untreated), Aβ (1 μM, oligomeric form), or 0.5 nM bryostatin for 24 hours. Some cells were co-treated with Aβ plus 0.5 nM bryostatin (Bryo+Aβ) for 24 hours, or pre-treated with Aβ for 12 hours, washed out, and then treated with bryostatin for additional 12 hours (Aβ+Bryo). Cells were then lysed and total RNA was isolated. Relative expression change of BDNF, NGF, NT-3, and GAP-43 mRNA was quantitatively measured from real time PCR using specific primers against rat BDNF, NGF, NT-3, and GAP-43 mRNA (FIG. 14). A representative gel image is also shown below in FIG. 14 (Mean+SEM, *P<0.05, Aβ compared with untreated; #P<0.05, Bryo+Aβ or Aβ+Bryo compared with Aβ only).
Test A—DCPLA (500 nM): Primary hippocampal neurons were treated with control buffer (Untreated), Aβ (1 μM, oligomer), or 500 nM DCPLA for 24 hours. Some cells were pre-treated with Aβ for 12 hr and then treated with 500 nM DCPLA for 12 hours (Aβ+DCP-LA), or co-treated with Aβ plus 500 nM DCP-LA (DCP-LA+Aβ) for 24 hours. Total RNA was isolated and relative expression change of BDNF, NGF, NT-3, and GAP-43 mRNA was quantitatively measured from real time RT-PCR using specific primers against rat BDNF, NGF, NT-3, and GAP-43 mRNA (FIG. 15). A representative gel image is also shown below in FIG. 15 (Mean+SEM of three independent experiments, *P<0.05, Aβ compared with untreated; #P<0.05, Aβ+Bryo or Bryo+Aβ compared with Aβ only).
Test B—DCPLA-methyl ester (100 nM): Primary hippocampal neurons were treated with control buffer (Untreated), 1 μM Aβ, or 100 nM DCP-LA ME (the methyl ester form of DCP-LA) for 24 hours. Some cells were pre-treated with Aβ for 12 hr and then treated with 100 nM DCP-LA ME for 12 hours (Aβ+DCP-LA ME), or co-treated with Aβ plus […] (DCP-LA ME+Aβ) for 24 hours. Total RNA was isolated and relative expression change of BDNF, NGF, NT-3, and GAP-43 mRNA was quantitatively measured from real time RT-PCR using specific primers against rat BDNF, NGF, NT-3, and GAP-43 mRNA (FIG. 16). […]

[2] = tested on: TA 100 cells & TA 1535 cells / TA 98 cells; experiment: AMES testing, overall result (mutagenic potential); type: cell-based
Text: The AMES test is a rapid screening of the mutagenic potential of chemical compounds. […] Between 50% and 70% of all known carcinogens test positive in the AMES test.

Row | Compound | PKC-ε specificity versus PKC-α and PKC-δ (PKC-ε; purified PKC isozymes (9 ng), preincubated 5 minutes at room temperature) | amyloid deposition (5XFAD mice; 20 mg/m2 tail vein) | learning and memory deficits (water maze) (5XFAD mice; 20 mg/m2 tail vein) | NTF mRNA expression decreased by Aβ ([1]; 500 nM, Aβ 1 μM oligomer) | AMES testing result [2] | Result (Mutagenic Potential) [2] | activation of α isoform versus ε isoform (PKC-ε; in vitro measurements with purified PKC isozymes) | amyloid deposition (5XFAD mice; 30 μg/kg intraperitoneal) | learning and memory deficits (water maze) (5XFAD mice; 30 μg/kg intraperitoneal) | NTF mRNA expression decreased by Aβ ([1]; 0.5 nM, Aβ 1 μM oligomeric) | AMES testing result ([2]; summary of Tables 1-4)
1 | CCCCCC1CC1CC1CC1CCCCCCCC(=O)O (centres unmarked) [DCPLA, 8-[2-(2-pentylcyclopropyl)methyl]-cyclopropaneoctanoic acid] | PKC-ε specificity ±15% PKC-α and PKC-δ | reduced amyloid deposition | prevented learning (A, C) and memory deficits (B, D) | recovers NTF mRNA expression decreased by Aβ | not mutagenic | Result: Not mutagenic, p > 0.05 |  |  |  |  | 
2 | CCC/C=C/C=C/C(=O)O[C@H]1/C(=C/C(=O)OC)C[C@H]2C[C@H]([C@@H](C)O)OC(=O)C[C@H](O)C[C@@H]3C[C@H](OC(C)=O)C(C)(C)[C@](O)(C[C@@H]4C/C(=C/C(=O)OC)C[C@H](/C=C/C(C)(C)[C@]1(O)O2)O4)O3 [Bryostatin, bryostatin-1] |  |  |  |  |  |  | activates the α isoform and ε isoform equally | reduced amyloid deposition | prevented learning (A, C) and memory deficits (B, D) | recovers NTF mRNA expression decreased by Aβ | not mutagenic
